Assay results: US9409961B2, “Cell penetrating peptides to target EIF4E” (Hoffmann-La Roche Inc., priority 2012, dated 2016)
Square brackets hold non-standard residues; d marks the D form. Peptide text beside a SMILES is read from it. Nle = CCCC[C@H](N)C(=O)O

What was measured:
[1] = system: downstream target gene expression; experiment: downstream target gene expression and apoptosis (FIG. 2); format: cell-based
[2] = stability in rat plasma; format: in vitro ADME; settings: Hannover Wistar, pH 7.4, Conc. 10 uM, 37° C.
Description: (§1) The following study was conducted to assess the stability of the compound of Examples 2-4 (SEQ ID NOS: 9, 10 and 11) in Hannover Wistar rat and human plasma after 4 and 24 hours. Approximately, 2.0 mg of the compound of Examples 2-4 (SEQ ID NOS 9, 10 and 11) was weighed out and placed in a 4 mL amber vial. To this was added 1.0 mL DMSO. The vial was carefully vortexed to produce a solution of approximately 600 μM.
(§2) Hannover Wistar rat plasma and human plasma (anti-coagulant sodium EDTA) were pre-warmed to 37° C. for 30 minutes in a water bath. The pH of both plasmas was adjusted to pH7.4. 1.5 mL microcentrifuge vials were used.
(§3) The stock solution of the compound of Examples 2-4 was diluted into rat or human plasma to a final concentration of 10 μM. The two vials were gently vortexed ensuring proper mixing.
(§4) Six new vials were labeled as follows: rat T0, rat T4, rat T24, human T0, human T4, human T24. To each of these vials, 50 μL of treated plasma was added. The T4 and T24 vials were capped and placed in a 37° C. incubator for 4 and 24 hours, respectively.
(§5) To each of the two T0 vials, 50 μL of Sorensen buffer and 200 μL 1.0% acetic acid in acetonitrile were added. The T0 vials were then capped, vortexed and centrifuged at 10000×g for 10 minutes. Upon completion of centrifugation, 100 μL of the supernatant of each vial was added to a separate well in a 96-well injection block. 200 µL of 0.1% acetic acid in Milli-Q® water (Millipore) was then added to each well.
(§6) The above procedure as written with respect to the T0 vials was repeated for the two T4 vials at the 4 hour time point and the T24 vials at the 24 hour time point. With each time point a fresh T0 sample was prepared, as described above, to ensure there was no sample degradation.
(§7) All samples were analyzed by LC/MS/MS. The resulting chromatographs were processed to obtain peaks areas for each sample. The percent of compound remaining at each time point as compared with the amount present in the comparison T0 sample was calculated.

[3] = stability in human plasma; format: in vitro ADME; settings: pH 7.4, Conc. 10 uM, 37° C.
Description: as §1, §2, §3, §4, §5, §6, §7

[4] = target: T1, human eIF4E (Homo sapiens, UniProt P06730); experiment: biochemical assay of peptide binding to human eIF4E (displacement of biotin labeled 4G2 peptide)
T1 construct: made in house
T1 sequence (P06730 with tags, fused parts or gaps): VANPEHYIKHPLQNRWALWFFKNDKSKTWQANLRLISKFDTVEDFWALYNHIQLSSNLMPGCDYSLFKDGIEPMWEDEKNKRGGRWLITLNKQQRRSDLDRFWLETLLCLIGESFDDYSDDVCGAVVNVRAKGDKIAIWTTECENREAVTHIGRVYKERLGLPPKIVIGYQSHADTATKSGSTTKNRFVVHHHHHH
Description: A biochemical assay was run to test peptide binding to human eIF4E.
Human eIF4E (aa 28-217, SEQ ID NO: 87) with a C-terminal His tag (HH-eIF4E, SEQ ID NO: 88) was expressed in E. coli in inclusion bodies. The protein was solubilized with 8 M urea and purified under denaturing conditions using nickel-charged HisTrap HP columns (GE Healthcare). The protein was refolded by diluting to approximately 0.25 mg/mL with 6 M urea, 20 mM Hepes pH 7.0, 500 mM NaCl, 1 mM DTT, 1 mM EDTA, and 0.5 M arginine.HCl, and then dialyzing overnight into the same buffer without the urea. The protein was further dialyzed into 20 mM Hepes pH 6.5, 50 mM NaCl, 1 mM EDTA, and 1 mM DTT, filtered, and then concentrated using Hitrap SP sepharose FF columns (GE Healthcare). The protein was dialyzed into 20 mM Hepes pH 7.0, 500 mM NaCl, 5 mM DTT, and 10% glycerol and stored at −80° C. until use.
Test peptides (1.6 mM stock in DMSO) were diluted 3 fold in series in DMSO and solutions were diluted 4 fold in Assay Buffer (50 mM NaPi, pH 6.5, 50 mM KCl, 1 mM DTT, 0.004% NP40 and 0.5 mg/ml gammaglobulin). Six microliters per well of diluted peptide solutions and 12 microliters per well of 187.5 nM HH-eIF4E in Assay Buffer were added to 384-well polypropylene microplates (Matrix, Thermal Scientific). Twelve microliters per well of 187.5 nM biotin labeled 4G2 peptide (Ac-[…]Aha-Bio)-NH2 (SEQ ID NO: 91) 1:2 TFA) in Assay Buffer was added. The samples were incubated at room temperature for 20 minutes.
Six microliters per well of 4.8 nM Eu-streptavidin (Columbia Biosciences) and 48 nM Allophycocyanin-anti His antibody (Columbia Biosciences) in Assay Buffer (without DTT) were then added and the samples were incubated at room temperature for 30 min. Assay signals were monitored by reading emission fluorescence at 665 nm on an Envision Reader (PerkinElmer Life and Analytical Sciences). IC50 values were calculated using Condoseo software (Genedata AG, Basel, Switzerland).

[5] = Binding affinities expressed as IC50, HH-eIF4E, biotin labeled 4G2 peptide
[6] = IC50 (μM), Table 2a, cell penetrating peptides with the Y----LL-F and YWLLALFVY motifs
[7] = IC50 (μM), Table 2, cell-penetrating peptides with the Y----LL-F motif

## Ac-MAKLKYWLLALFVYMWTDLLLFKKRPKP-NH2 [SEQ ID NO: 9]
[1]
  apoptosis: induce apoptosis
  downstream target gene expression: inhibit downstream target gene expression
[2]
  remaining at 4 h, 10 µM: 91.7%
  remaining at 24 h, 10 µM: 18.2%
[3]
  remaining at 4 h, 10 µM: 94.9%
  remaining at 24 h, 10 µM: 76.2%
[4]; [5]
  IC50: 4.4 µM

## CCCC[C@H](NC(=O)[C@H](CC(C)C)NC(=O)[C@H](CC(=O)O)NC(=O)[C@@H](NC(=O)[C@H](Cc1c[nH]c2ccccc12)NC(=O)[C@H](CCSC)NC(=O)[C@H](Cc1ccc(O)cc1)NC(=O)[C@@H](NC(=O)[C@H](Cc1ccccc1)NC(=O)[C@H](CC(C)C)NC(=O)[C@H](C)NC(=O)[C@H](CC(C)C)NC(=O)[C@H](CC(C)C)NC(=O)[C@H](Cc1c[nH]c2ccccc12)NC(=O)[C@H](Cc1ccc(O)cc1)NC(=O)[C@H](CCCCN)NC(=O)[C@H](CC(C)C)NC(=O)[C@H](CCCCN)NC(=O)[C@H](C)NC(=O)[C@H](CCSC)NC(C)=O)C(C)C)[C@@H](C)O)C(=O)N[C@@H](CC(C)C)C(=O)N[C@@H](Cc1ccccc1)C(=O)N[C@@H](CCCCN)C(=O)N[C@@H](CCCCN)C(=O)N[C@@H](CCCNC(=N)N)C(=O)N1CCC[C@H]1C(=O)N[C@@H](CCCCN)C(=O)N1CCC[C@H]1C(N)=O [SEQ ID NO: 29] (Ac-MAKLKYWLLALFVYMWTDL[Nle]LFKKRPKP-NH2)
[4]; [6]
  IC50: 7.39 µM

## Ac-MYKSKILLWFLVLFVAMWSDVALAKKRPKP-NH2 [SEQ ID NO: 19]
[4]; [7]
  IC50: 7.21 µM

## Ac-MANLAYWLLALFVYMWTDLRLFKKRPKP-NH2 [SEQ ID NO: 10]
[1]
  apoptosis: induce apoptosis
  downstream target gene expression: inhibit downstream target gene expression
[2]
  remaining at 4 h, 10 µM: 102%
  remaining at 24 h, 10 µM: 23.7%
[3]
  remaining at 4 h, 10 µM: 99.1%
  remaining at 24 h, 10 µM: 45.2%
[4]; [5]
  IC50: 6.61 µM
[4]; [6]
  IC50: 1.7 µM

## Ac-ANLAYWLLALFVYMWTDLRLFKKRPKP-NH2 [SEQ ID NO: 34]
[4]; [6]
  IC50: 2.22 µM

## Ac-MANLGYWLLALFVYMWTDLLLFKKRPKP-NH2 [SEQ ID NO: 16]
[4]; [7]
  IC50: 3.03 µM
